Consider two molecules from patent publication US12156871B2, “Substituted azacycles as muscarinic M1 receptor positive allosteric modulators” (SUVEN LIFE SCIENCES LIMITED, priority 2017, dated 2024).

The target in data set [1] is T1, human Muscarinic M1 receptor (Homo sapiens, UniProt P11229).
T1 sequence (P11229 1-460): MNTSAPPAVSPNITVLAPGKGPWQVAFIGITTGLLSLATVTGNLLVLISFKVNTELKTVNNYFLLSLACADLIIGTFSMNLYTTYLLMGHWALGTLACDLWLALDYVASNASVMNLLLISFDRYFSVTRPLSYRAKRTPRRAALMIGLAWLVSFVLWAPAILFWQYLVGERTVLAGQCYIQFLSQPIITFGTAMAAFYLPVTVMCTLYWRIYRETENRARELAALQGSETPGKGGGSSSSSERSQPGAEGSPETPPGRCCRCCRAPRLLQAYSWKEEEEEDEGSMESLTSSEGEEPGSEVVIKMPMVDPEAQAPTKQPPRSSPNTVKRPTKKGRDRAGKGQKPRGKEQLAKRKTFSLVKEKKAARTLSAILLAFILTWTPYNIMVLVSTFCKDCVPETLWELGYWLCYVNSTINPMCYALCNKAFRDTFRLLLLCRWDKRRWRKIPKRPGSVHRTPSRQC
As to the kind of experiment: Allosteric potency EC50 for muscarinic M1 receptor, CHO pCRE-Luc reporter cell assay. Format: cell-based. To be noted: in presence of EC20 of acetylcholine; CHO cells, luciferase reporter, 4 h. The method, then: A stable CHO cell line expressing recombinant human Muscarinic M1 receptor and pCRE-Luc reporter system was used for cell-based assay. The assay offers a non-radioactive based approach to determine binding of a compound to GPCRs. In this specific assay, the level of intracellular cyclic AMP which is modulated by activation or inhibition of the receptor is measured. The recombinant cells harbor luciferase reporter gene under the control of cAMP response element.
The above cells were grown in 96 well clear bottom white plates in Hams F12 medium containing 10% fetal bovine serum (FBS). Prior to the addition of compounds or standard agonist, cells were serum starved overnight. Increasing concentrations of test compounds were added along with EC20 of acetylcholine in OptiMEM medium to the cells. The incubation was continued at 37° C. in CO2 incubator for 4 h. Medium was removed and cells were washed with phosphate buffered saline. The cells were lysed and luciferase activity was measured in a Luminometer. Luminescence units were plotted against the compound concentrations using Graphpad software. EC50 values of the compounds were defined as the concentration required in stimulating the luciferase activity by 50% in presence of EC20 of acetylcholine.

Data set [2] can be described thus: Protein binding assay (HT dialysis), human plasma. Format: in vitro ADME. Particulars: pH 7.4, Mean ± SEM, n = 3, read-out: Fu Plasma (converted). How it is done: (§1) Unbound fractions of test compounds in plasma, brain homogenate and liver microsomes were determined using high-throughput dialysis (HT dialysis). Briefly, dialysis membranes were soaked in deionized water for 20 minutes and then in deionized water with 30% ethanol for 15 minutes and finally in phosphate buffer until use. Membranes were rinsed in phosphate buffer before assembling. The membranes were layered between teflon bars of dialysis assembly. Stock solutions of test compound/comparative compound were prepared at 10 mM in DMSO, diluted to 1 mM in acetonitrile and further diluted to 100 μM in mixture of water and acetonitrile (1:1 v/v). Human plasma (pool of 3) was prepared from human blood (3 donors) by centrifuging at 4000 rpm for 10 min at 4° C. Rat and dog blood were obtained on the day of the study and centrifuged to obtain plasma. Rat brains were isolated, cleaned and homogenized with 2 volumes of buffer (3 fold dilution). Liver microsomes were prepared at 0.5 mg/mL in phosphate buffer (100 mM, pH 7.4). The dialysate chambers were loaded with 150 μL of 100 mM phosphate buffer (pH 7.4) in triplicates. The matrix chambers were loaded with 150 μL of the plasma or brain homogenate or microsomal suspension spiked with test compound/comparative compound at a final concentration of 1 μM. 50 μL of the sample was removed from both the chambers at 0 h. The plate was sealed and incubated at 37° C. for 6 h at 100 rpm. After 6 h, 50 μL of the sample was removed from both the chambers. Equal volumes of buffer or human plasma/microsomal suspension were added to the plasma/microsomal and buffer samples respectively to create identical sample matrices for analysis. The samples were precipitated with 150 μL of acetonitrile containing fluoxetine as an internal standard. All the samples were centrifuged at 10000 rpm for 10 minutes at 4° C.

Data set [3] in a line: Protein binding assay (HT dialysis), dog liver microsomes. Format: in vitro ADME. To be noted: pH 7.4, Dog liver microsomes 0.5 mg/mL, Mean ± SEM, n = 3, read-out: Fu Microsomes (converted). The method, then: as §1
For orientation: Microsomes from liver hold many membrane-bound enzymes, among them those of drug oxidation.

A short description of data set [4]: Protein binding assay (HT dialysis), rat liver microsomes. Format: in vitro ADME. Particulars: pH 7.4, Rat liver microsomes 0.5 mg/mL, Mean ± SEM, n = 3, read-out: Fu Microsomes. The method, then:
as §1

Data set [5] can be described thus: Protein binding assay (HT dialysis), rat plasma. Format: in vitro ADME. To be noted: pH 7.4, Mean ± SEM, n = 3, read-out: Fu Plasma. The method, then: as §1
A short description of data set [6]: Protein binding assay (HT dialysis), dog plasma. Format: in vitro ADME. To be noted: pH 7.4, Mean ± SEM, n = 3, read-out: Fu Plasma (converted). The method, then:
as §1

A short description of data set [7]: Protein binding assay (HT dialysis), rat brain homogenate. Format: in vitro ADME. To be noted: pH 7.4, Mean ± SEM, n = 3, read-out: Fu Brain. The method, then:
as §1

Data set [8] concerns hippocampal theta oscillations. The data set can be described thus: Theta modulation in dorsal hippocampus of anesthetized rats in combination with donepezil. Format: in vivo, Male Wistar rats. To be noted: in combination with donepezil (0.3 mg/kg, i.v.), test compound 1 mg/kg.
Source text: Male Wistar rats (240-320 g) were anesthetized by intraperitoneal administration of urethane (1.2 to 1.5 g/kg) for implantation of a catheter in the left femoral vein. The animal was placed in a stereotaxic frame for implanting an electrode (stainless steel wire, Plastics One) into the dorsal hippocampus (AP: 3.8 mm; ML: +2.2 mm; DV: 2.5 mm; Paxinos and Watson, 2004). Bipolar stimulating electrode (untwisted stainless steel wires, separated by 0.75-1.0 mm at their tips, Plastics One) was implanted in the Nucleus Pontis Oralis (NPO; AP: 7.8 mm; ML: 1.8 mm; DV: 6.0 mm; Paxinos and Watson, 2004). Additionally one electrode was implanted into the cerebellum which served as a reference. Hippocampal θ rhythm was evoked via a 6-s electrical stimulation train (20-160 μA, 0.3-ms pulse duration, 250 Hz) delivered to the NPO at a rate of 0.01 trains/s with a Grass S88 stimulator and PSIU6 stimulus isolation unit (Grass Medical Instruments, Quincy, MA). EEG was recorded at a rate of 1000 Hz using Ponemah (Version 5.2) software and stored for off-line analysis using NeuroScore (Version 3.0). […]
Power in the θ rhythm frequency in the stimulation period during the 30-min baseline period was calculated and the % changes in these measures post treatment were calculated. […]

The EC50 is the concentration needed to bring the measured effect to its halfway point. `COc1ccc(Cc2cc3c(nc2C)CN([C@H]2CCCC[C@@H]2O)C3=O)cc1` [Example 6, 6-(1S,2S-2-Hydroxycyclohexyl)-2-methyl-3-(4-methoxybenzyl)-6,7-dihydropyrrolo[3,4-b]pyridin-5-one]: the EC50 in data set [1] turned out to be 954 nM. The fraction unbound at 6 h, 1 μM in data set [2] is 0.124; in data set [3] it was 0.906; in data set [4], 0.798 ± 0.12; in data set [5], 0.113 ± 0.003; in data set [6], 0.115; in data set [7], 0.123 ± 0.009.

With `COc1cccc(Cc2cc3c(nc2C)CN([C@H]2CCCC[C@@H]2O)C3=O)c1` [Example 38, 6-(1S,2S-2-Hydroxycyclohexyl)-2-methyl-3-(3-methoxybenzyl)-6,7-dihydropyrrolo[3,4-b]pyridin-5-one], in data set [1], the EC50 was 2280 nM. For the same molecule, the fraction unbound at 6 h, 1 μM is 0.192 in data set [2]; 0.843 in data set [3]; 0.826 ± 0.03 in data set [4]; 0.103 ± 0.003 in data set [5]; 0.116 in data set [6]; 0.084 ± 0.002 in data set [7]. Besides, the “effect of combination treatment on θ power compared with donepezil alone” value in data set [8] (FIG. 1) is “significantly higher than the donepezil alone”. Moreover, the θ power levels entry in data set [8] (anesthetized rat) is on record as “significant increase”.
